In ChEMBL document CHEMBL4321867, “Optimization of LpxC Inhibitor Lead Compounds Focusing on Efficacy and Formulation for High Dose Intravenous Administration” (J Med Chem, 2020):
In brackets after ≈: the same amount, converted by molar mass.

Key:
physchem [1] = details: buffer, pH 9
physchem [2] = assay: physchem
physchem [3] = details: buffer, pH 4
Pseudomonas aeruginosa = assay: microbe, parasite or virus in culture; details: ATCC 27853
Escherichia coli = assay: microbe, parasite or virus in culture; details: ATCC 25922
physchem [4] = details: buffer, pH 7
[5] = system: T1, UDP-3-O-acyl-N-acetylglucosamine deacetylase (Escherichia coli K-12), P0A725 [C125S]; details: 25 uM
T1 sequence (whole entry): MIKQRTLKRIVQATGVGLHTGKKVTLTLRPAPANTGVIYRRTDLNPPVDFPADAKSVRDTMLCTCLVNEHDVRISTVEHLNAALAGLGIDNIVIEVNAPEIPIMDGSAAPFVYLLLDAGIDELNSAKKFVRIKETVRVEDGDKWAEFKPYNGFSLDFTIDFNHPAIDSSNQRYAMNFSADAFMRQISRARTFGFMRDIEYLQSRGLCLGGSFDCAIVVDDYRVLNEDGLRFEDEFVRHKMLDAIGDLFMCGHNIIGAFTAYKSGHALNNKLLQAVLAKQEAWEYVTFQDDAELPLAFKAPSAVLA

physchem [6] = details: n-octanol/phosphate buffer, pH 7.4
[7] = system: T2, UDP-3-O-acyl-N-acetylglucosamine deacetylase (Pseudomonas aeruginosa (strain ATCC 15692 / PAO1 / 1C / PRS 101 / LMG12228)), P47205 [C40S]; details: 25 uM
T2 sequence (whole entry): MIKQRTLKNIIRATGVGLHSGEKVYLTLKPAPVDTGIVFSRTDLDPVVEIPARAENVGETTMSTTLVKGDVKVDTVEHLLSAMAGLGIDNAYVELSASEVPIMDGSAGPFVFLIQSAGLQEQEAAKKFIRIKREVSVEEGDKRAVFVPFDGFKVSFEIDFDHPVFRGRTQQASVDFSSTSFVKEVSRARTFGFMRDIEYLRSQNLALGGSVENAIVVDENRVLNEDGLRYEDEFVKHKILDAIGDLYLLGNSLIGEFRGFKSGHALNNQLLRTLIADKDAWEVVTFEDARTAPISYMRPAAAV

Klebsiella pneumoniae = assay: microbe, parasite or virus in culture; details: T6474
in vitro [8] = details: rat, liver microsomes
in vivo = details: mouse, sc, 150 mg/kg
in vitro [9] = details: rat, hepatocytes

SMILES	solubility at 24 h (physchem [1]) [µg/mL]	pKa (physchem [2])	solubility at 24 h (physchem [3]) [µg/mL]	MIC (Pseudomonas aeruginosa) [µg/mL]	MIC (Escherichia coli) [µg/mL]	solubility at 24 h (physchem [4]) [µg/mL]	deltaTm [5] [K]	logD (physchem [6])	deltaTm [7] [K]	MIC (Klebsiella pneumoniae) [µg/mL]	microsomal CLint at 1 µM (in vitro [8]) [µL/min/mg]	AUC(0-t) at 24 h (in vivo) [ng·h/mL]	hepatocyte CLint at 1 µM (in vitro [9]) [µL/min/1e6 cells]
CN(C)C1(C#CC#Cc2cc3n(c2)C(=O)N(CC[C@](C)(C(=O)NO)S(C)(=O)=O)C3)CC1	95 (≈ 213 µM)	5.5	412 (≈ 923 µM)	0.5 (≈ 1.12 µM)	0.25 (≈ 0.56 µM)	15 (≈ 33.6 µM)	11.6	2.1	13.4	0.5 (≈ 1.12 µM)			
CCN1CC(C#CC#Cc2cc3n(c2)C(=O)N(CC[C@](C)(C(=O)NO)S(C)(=O)=O)C3)C1	> 750	8.5	> 750	0.5 (≈ 1.12 µM)	0.25 (≈ 0.56 µM)	> 750	9.3	0.6	10.4	0.5 (≈ 1.12 µM)			
C[C@@](CCN1Cc2cc(C#CC#CC3CNC3)cn2C1=O)(C(=O)NO)S(C)(=O)=O	> 710	9.4	> 710	1 (≈ 2.39 µM)	8 (≈ 19.1 µM)	> 710	8	-1	9.3	4 (≈ 9.56 µM)			
CC(=O)N1CC(C#CC#Cc2cc3n(c2)C(=O)N(CC[C@](C)(C(=O)NO)S(C)(=O)=O)C3)C1	> 780		> 780	1 (≈ 2.17 µM)	1 (≈ 2.17 µM)	> 780	9.7	0.3	12.4	1 (≈ 2.17 µM)			
CC(C)N1CC(C#CC#Cc2cc3n(c2)C(=O)N(CC[C@](C)(C(=O)NO)S(C)(=O)=O)C3)C1	420 (≈ 912 µM)	8.3	> 780	0.5 (≈ 1.09 µM)	0.25 (≈ 0.543 µM)	398 (≈ 864 µM)	9.6	1	11.2	0.25 (≈ 0.543 µM)			
C[C@@](CCN1Cc2cc(C#CC#CC3(CO)CC3)cn2C1=O)(C(=O)NO)S(C)(=O)=O	553 (≈ 1280 µM)		149 (≈ 344 µM)	0.5 (≈ 1.15 µM)	0.25 (≈ 0.577 µM)	384 (≈ 886 µM)		0.9		1 (≈ 2.31 µM)	24	89500	8.5
C[C@@](CCN1Cc2cc(C#CC#CC3CCN(C4COC4)CC3)cn2C1=O)(C(=O)NO)S(C)(=O)=O	> 850	6.2	> 850	2 (≈ 3.98 µM)	0.5 (≈ 0.995 µM)	329 (≈ 655 µM)	11.1	1.1	13.2	1 (≈ 1.99 µM)			
C[C@]1(CO)C[C@@H]1C#CC#Cc1cc2n(c1)C(=O)N(CC[C@](C)(C(=O)NO)S(C)(=O)=O)C2	506 (≈ 1130 µM)		344 (≈ 769 µM)	0.25 (≈ 0.559 µM)	0.25 (≈ 0.559 µM)	401 (≈ 896 µM)		1.6		0.25 (≈ 0.559 µM)	< 10		55
C[C@@](CCN1Cc2cc(C#CC#CC3CN(CC(F)F)C3)cn2C1=O)(C(=O)NO)S(C)(=O)=O	> 820	5.2	> 820	1 (≈ 2.07 µM)	0.06 (≈ 0.124 µM)	209 (≈ 433 µM)	10.6	1.4	13.2	0.25 (≈ 0.518 µM)			
C[C@@](CCN1Cc2cc(C#CC#CC3(F)CNC3)cn2C1=O)(C(=O)NO)S(C)(=O)=O	279 (≈ 639 µM)	8	> 740	2 (≈ 4.58 µM)	1 (≈ 2.29 µM)	175 (≈ 401 µM)	7.1	0.3	10	2 (≈ 4.58 µM)			
C[C@@](CCN1Cc2cc(C#CC#CC3(CN)CC3)cn2C1=O)(C(=O)NO)S(C)(=O)=O	> 730	9.2	> 730	16 (≈ 37 µM)	8 (≈ 18.5 µM)	552 (≈ 1280 µM)	9.6	-0.4	10.7	16 (≈ 37 µM)			
CC(C)(O)CN1CC(C#CC#Cc2cc3n(c2)C(=O)N(CC[C@](C)(C(=O)NO)S(C)(=O)=O)C3)C1	> 830	7.8	> 830	0.5 (≈ 1.02 µM)	0.5 (≈ 1.02 µM)	> 830	10.3	0.7	12.1	1 (≈ 2.04 µM)		47300	
C[C@@](CCN1Cc2cc(C#CC#CCN3CCC(O)CC3)cn2C1=O)(C(=O)NO)S(C)(=O)=O	> 810	6.5	> 810	1 (≈ 2.1 µM)	1 (≈ 2.1 µM)	> 810	9.5	0.4	11.5	2 (≈ 4.2 µM)			
CN1CCC(F)(C#CC#Cc2cc3n(c2)C(=O)N(CC[C@](C)(C(=O)NO)S(C)(=O)=O)C3)CC1	203 (≈ 424 µM)	8	> 810	1 (≈ 2.09 µM)	0.5 (≈ 1.04 µM)	384 (≈ 802 µM)	9.6	1	12	1 (≈ 2.09 µM)			
C[C@@](CCN1Cc2cc(C#CC#C[C@@H]3C[C@H]3[C@H](O)CO)cn2C1=O)(C(=O)NO)S(C)(=O)=O	> 780		618 (≈ 1330 µM)	0.5 (≈ 1.08 µM)	0.25 (≈ 0.539 µM)	> 780		0.5		1 (≈ 2.16 µM)	< 10		10
C[C@@](CCN1Cc2cc(C#CC#C[C@H]3C[C@]3(F)CO)cn2C1=O)(C(=O)NO)S(C)(=O)=O	> 760		354 (≈ 784 µM)	0.5 (≈ 1.11 µM)	0.25 (≈ 0.554 µM)	613 (≈ 1360 µM)		0.9		0.5 (≈ 1.11 µM)	16		13
C[C@@](CCN1Cc2cc(C#CC#CC3CN(C4COC4)C3)cn2C1=O)(C(=O)NO)S(C)(=O)=O	681 (≈ 1440 µM)	5.5	> 800	1 (≈ 2.11 µM)	0.25 (≈ 0.527 µM)	128 (≈ 270 µM)	10.5	0.5	12.6	0.5 (≈ 1.05 µM)			
CN1CCC(C#CC#Cc2cc3n(c2)C(=O)N(CC[C@](C)(C(=O)NO)S(C)(=O)=O)C3)CC1	574 (≈ 1250 µM)	9	> 780	1 (≈ 2.17 µM)	4 (≈ 8.69 µM)	> 780	10.6	0.2	11.3	4 (≈ 8.69 µM)			
CNC1(C#CC#Cc2cc3n(c2)C(=O)N(CC[C@](C)(C(=O)NO)S(C)(=O)=O)C3)CC1	486 (≈ 1120 µM)	6.5	551 (≈ 1270 µM)	0.5 (≈ 1.16 µM)	0.12 (≈ 0.277 µM)	182 (≈ 421 µM)	10.6	1.4	12.2	0.25 (≈ 0.578 µM)			
CN1CC(F)(C#CC#Cc2cc3n(c2)C(=O)N(CC[C@](C)(C(=O)NO)S(C)(=O)=O)C3)C1	> 760	6.7	> 760	2 (≈ 4.44 µM)	0.12 (≈ 0.266 µM)	219 (≈ 486 µM)	8.1	1.1	11.6	0.5 (≈ 1.11 µM)			
CN1CC(C#CC#Cc2cc3n(c2)C(=O)N(CC[C@](C)(C(N)=O)S(C)(=O)=O)C3)C1	92 (≈ 221 µM)	8.4	> 700	> 32	> 32	706 (≈ 1700 µM)	0	0.5	0.3	> 32			
C[C@@](CCN1Cc2cc(C#CC#C[C@@H]3C[C@H]3CO)cn2C1=O)(C(=O)NO)S(C)(=O)=O	552 (≈ 1270 µM)		600 (≈ 1380 µM)	0.5 (≈ 1.15 µM)	0.12 (≈ 0.277 µM)	602 (≈ 1390 µM)				0.25 (≈ 0.577 µM)	< 10		13.4
